From patent US6670339B1, “Use of sulfated oligosaccharides in lowering blood triglyceride levels” (The Australian National University, priority 1997, dated 2003)
Read-outs that look alike come from different tables or passages of the source.

Key:
[1] = biological target: T1, bovine milk lipoprotein lipase (Bos taurus, UniProt P11151); assay: Inhibition of binding of biotinylated heparin/heparan sulfate to immobilised lipoprotein lipase; conditions: for inhibitory activity on lipoprotein lipase binding to heparin/heparan sulfate, in words: summary of Table 1
T1 construct: purified from bovine milk as previously described; from tissue; host or cells: bovine milk
T1 sequence (P11151 29-478): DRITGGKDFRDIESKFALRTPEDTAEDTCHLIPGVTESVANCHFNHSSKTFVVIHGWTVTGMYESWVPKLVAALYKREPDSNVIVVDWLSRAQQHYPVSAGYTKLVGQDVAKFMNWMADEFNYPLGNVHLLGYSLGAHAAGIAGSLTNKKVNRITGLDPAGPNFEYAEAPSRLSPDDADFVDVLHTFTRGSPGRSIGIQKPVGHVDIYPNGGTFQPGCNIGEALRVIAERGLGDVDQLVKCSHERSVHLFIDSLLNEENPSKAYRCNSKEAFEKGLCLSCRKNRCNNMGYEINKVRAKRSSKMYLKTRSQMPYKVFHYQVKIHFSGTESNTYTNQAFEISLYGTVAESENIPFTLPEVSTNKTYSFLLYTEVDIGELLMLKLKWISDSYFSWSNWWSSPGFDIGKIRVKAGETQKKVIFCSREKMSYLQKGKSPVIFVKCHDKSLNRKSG
Experimental: As a more rapid and direct means of measuring the ability of different sulfated oligosaccharides to release lipoprotein lipase from the endothelium, an in vitro assay for this effect was developed. The assay involved immobilising lipoprotein lipase (10 μg/ml in PBS, 15 hr, 4° C.), purified from bovine milk as previously described^12, in 96 well plastic microplates (50 μl/well). Non-specific binding sites were then blocked by the addition of 200 μl/well of PBS containing 1% (w/v) bovine serum albumin (BSA) for 2 hr at 4° C. Following three washes with 200 μl/well of PBS/0.05% Tween 20 (PBST), 50 μl/well of either biotinylated bovine lung heparin or biotinylated porcine mucosal heparan sulfate (Sigma), used at either 1 or 10 μg/ml, was added and incubated for 2 hr at 4° C. Following three washes with PBST, 50 μl/well of europeum-streptavidin (1 ng/ml in PBS/1% BSA) was added for 1 hr at 4° C., the plate again washed three times with PBST, enhancement solution (50 μl/well) added and bound europeum measured by time resolved fluorescence detection using a Delfia Research Fluorometer (Wallac, Turku, Finland). Inhibition assays measured the ability of different sulfated oligosacchandes to inhibit the binding of biotinylated heparan/heparin sulfate to the immobilised lipoprotein lipase enzyme.

[2] = test system: serum triglyceride levels; assay: Serum triglyceride lowering by glycosaminoglycans and sulfated oligosaccharides in mice; assay type: in vivo, CBA/h female mice; conditions: 50 mg/kg s.c., 2 hours after injection
Experimental: FIG. 3. Ability of different glycosaminoglycans and sulfated oligosaccharides to lower serum triglyceride levels in CBA mice. Compounds were injected s.c. at a dose of 50 mg/kg, blood samples taken 2 hours later and assayed for triglyceride content. Each histogram is the mean±SEM (n=3) for each treatment.
Mice (CBA/h female mice 8-10 weeks old) were injected s.c. with a range of glycosaminoglycans and sulfated oligosaccharides at a dose of 50 mg/kg and 2 hours later mice were anaesthetised, blood was collected via cardiac puncture and allowed to clot and serum triglyceride levels measured using a commercially available kit (Sigma, Triglyceride—GPO-Trinder). […] The only other compound with some activity was suramin, a sulfonated compound which has previously been used as an angiogenesis and heparanase inhibitor.

[3] = biotinylated bovine lung heparin 1 μg/ml
[4] = biotinylated bovine lung heparin 10 μg/ml

maltohexaose sulfate [Maltohexaose SO4]
IC50, inhibition of binding of Biotinylated Heparin (1 μg/ml) to lipoprotein lipase [1, 3]: 3 µg/mL
IC50, inhibition of binding of Biotinylated Heparin (10 μg/ml) to lipoprotein lipase [1, 4]: 6 µg/mL
inhibitory activity on lipoprotein lipase binding to heparin/heparan sulfate, in words [1]: potent inhibitors
effect on serum triglyceride levels, in words [2]: significantly lowered triglyceride levels

O=S(=O)(O)OC[C@H]1O[C@@](COS(=O)(=O)O)(O[C@H]2O[C@H](COS(=O)(=O)O)[C@@H](OS(=O)(=O)O)[C@H](OS(=O)(=O)O)[C@H]2OS(=O)(=O)O)[C@@H](OS(=O)(=O)O)[C@@H]1OS(=O)(=O)O [Sucrose octasulfate, reference compound]
IC50, inhibition of binding of Biotinylated Heparin (1 μg/ml) to lipoprotein lipase [1, 3]: >200 µg/mL
inhibitory activity on lipoprotein lipase binding to heparin/heparan sulfate, in words [1]: lacked activity
effect on serum triglyceride levels, in words [2]: small but significant enhancement

Cc1ccc(C(=O)Nc2ccc(S(=O)(=O)O)c3cc(S(=O)(=O)O)cc(S(=O)(=O)O)c23)cc1NC(=O)c1cccc(NC(=O)Nc2cccc(C(=O)Nc3cc(C(=O)Nc4ccc(S(=O)(=O)O)c5cc(S(=O)(=O)O)cc(S(=O)(=O)O)c45)ccc3C)c2)c1 [Suramin, reference compound]
IC50 ([1]; biotinylated bovine lung heparin 1 μg/ml, read-out: IC50, inhibition of binding of Biotinylated Heparin (1 μg/ml) to lipoprotein lipase): > 77.1 µM
IC50 ([1]; biotinylated bovine lung heparin 10 μg/ml, read-out: IC50, inhibition of binding of Biotinylated Heparin (10 μg/ml) to lipoprotein lipase): > 77.1 µM
inhibitory activity on lipoprotein lipase binding to heparin/heparan sulfate, in words [1]: lacked activity
effect on serum triglyceride levels, in words [2]: some activity

Cellohexaose
IC50, inhibition of binding of Biotinylated Heparin (10 μg/ml) to lipoprotein lipase [1, 4]: 12 µg/mL
inhibitory activity on lipoprotein lipase binding to heparin/heparan sulfate, in words [1]: exhibited activity

maltoheptaose sulfate [Maltoheptaose SO4]
IC50, inhibition of binding of Biotinylated Heparin (1 μg/ml) to lipoprotein lipase [1, 3]: 3 µg/mL
IC50, inhibition of binding of Biotinylated Heparin (10 μg/ml) to lipoprotein lipase [1, 4]: 12 µg/mL
inhibitory activity on lipoprotein lipase binding to heparin/heparan sulfate, in words [1]: inhibitory
effect on serum triglyceride levels, in words [2]: significantly lowered triglyceride levels
